Assay results taken from ChEMBL document CHEMBL5226276, “Molecules with versatile biological activities bearing antipyrinyl nucleus as pharmacophore” (Eur J Med Chem, 2020).
≈ marks a conversion by molar mass, not a printed value.

Tests used:
[1] = Antioxidant activity assessed as DPPH radical scavenging activity incubated for 30 mins under dark condition; assay type: functional
[2] = Toxicity in brine shrimp assessed as lethal dose incubated for 24 hrs; conditions: artemia salina
Bacillus cereus = experiment: Antibacterial activity against Bacillus cereus assessed as inhibition of bacterial growth incubated for 24 hrs by filter paper disc diffusion assay; assay type: functional
Salmonella typhimurium = experiment: Antibacterial activity against Salmonella enterica subsp. enterica serovar Typhimurium assessed as inhibition of bacterial growth incubated for 24 hrs by filter paper disc diffusion assay; assay type: functional
[3] = system: Mycobacterium tuberculosis; experiment: Antimycobacterial activity against Mycobacterium tuberculosis H37Rv assessed as inhibition of bacterial growth at 1.56 to 100 ug/ml incubated for 6 days by alamar blue dye based broth microdilution assay; assay type: functional; conditions: dose 1.56-100 µg/ml; time 6 day; at 1.56 to 100 µg/mL
Proteus vulgaris = experiment: Antimicrobial activity against Proteus vulgaris assessed as inhibition of microbial growth incubated for 24 hrs by well dilution assay based UV-Vis spectroscopy; assay type: functional
Macrophomina phaseolina = experiment: Antimicrobial activity against Macrophomina phaseolina assessed as inhibition of microbial growth incubated for 48 hrs by well dilution assay based UV-Vis spectroscopy; assay type: functional
Candida albicans = experiment: Antimicrobial activity against Candida albicans assessed as inhibition of microbial growth incubated for 48 hrs by well dilution assay based UV-Vis spectroscopy; assay type: functional
Aspergillus niger = experiment: Antimicrobial activity against Aspergillus niger assessed as inhibition of microbial growth incubated for 48 hrs by well dilution assay based UV-Vis spectroscopy; assay type: functional
Klebsiella pneumoniae = experiment: Antimicrobial activity against Klebsiella pneumoniae assessed as inhibition of microbial growth incubated for 24 hrs by well dilution assay based UV-Vis spectroscopy; assay type: functional
Escherichia coli = experiment: Antimicrobial activity against Escherichia coli assessed as inhibition of microbial growth incubated for 24 hrs by well dilution assay based UV-Vis spectroscopy; assay type: functional
Aspergillus flavus = experiment: Antimicrobial activity against Aspergillus flavus assessed as inhibition of microbial growth incubated for 48 hrs by well dilution assay based UV-Vis spectroscopy; assay type: functional
Staphylococcus aureus = experiment: Antimicrobial activity against Staphylococcus aureus assessed as inhibition of microbial growth incubated for 24 hrs by well dilution assay based UV-Vis spectroscopy; assay type: functional
Rhizopus stolonifer = experiment: Antimicrobial activity against Rhizopus stolonifer assessed as inhibition of microbial growth incubated for 48 hrs by well dilution assay based UV-Vis spectroscopy; assay type: functional
Pseudomonas aeruginosa = experiment: Antimicrobial activity against Pseudomonas aeruginosa assessed as inhibition of microbial growth incubated for 24 hrs by well dilution assay based UV-Vis spectroscopy; assay type: functional
[4] = system: Mycobacterium tuberculosis; experiment: Antimycobacterial activity against Mycobacterium tuberculosis H37Rv assessed as inhibition of bacterial growth incubated for 6 days by alamar blue dye based broth microdilution assay; assay type: functional; conditions: time 6 day
[5] = Antioxidant activity assessed as DPPH radical scavenging activity by spectrophotometric assay; assay type: functional
[6] = Antioxidant activity assessed as DPPH radical scavenging activity; assay type: functional
[7] = Antioxidant activity assessed as DPPH radical scavenging activity incubated for 30 mins under dark condition by spectrophotometric assay; assay type: functional

Cc1c(/N=C/c2ccccc2)c(=O)n(-c2ccccc2)n1C
IC50 [1]: 31.3 µM

Cc1c(/N=C/c2ccc(Cl)cc2)c(=O)n(-c2ccccc2)n1C
LC50 [2]: 225 ppm

Cc1c(/N=C/c2ccc(O)c(O)c2)c(=O)n(-c2ccccc2)n1C
LC50 [2]: 481 ppm

Cc1c(/N=C/c2ccc(O)cc2O)c(=O)n(-c2ccccc2)n1C
LC50 [2]: 581 ppm

COc1ccccc1/C=N/c1c(C)n(C)n(-c2ccccc2)c1=O
MIC (Bacillus cereus): 12.5 mg/L (≈ 38.9 µM)
MIC (Salmonella typhimurium): 50 mg/L (≈ 156 µM)

COc1cccc(-c2csc(N/N=c3\c(/N=C/c4ccccc4)c(C)n(C)n3-c3ccccc3)n2)c1
inhibition (INH) [3]: 90%

Cc1c(/N=C/c2ccccc2)/c(=N\Nc2nc(-c3ccccc3)cs2)n(-c2ccccc2)n1C
inhibition (INH) [3]: 90%

Cc1c(/N=C/c2ccco2)/c(=N\c2ccccc2)n(-c2ccccc2)n1C
MIC (Proteus vulgaris): 16 mg/L
MIC (Macrophomina phaseolina): 6 mg/L
MIC (Candida albicans): 6 mg/L
MIC (Aspergillus niger): 6 mg/L
MIC (Klebsiella pneumoniae): 16 mg/L
MIC (Escherichia coli): 16 mg/L
MIC (Aspergillus flavus): 6 mg/L
MIC (Staphylococcus aureus): 16 mg/L
MIC (Rhizopus stolonifer): 6 mg/L
MIC (Pseudomonas aeruginosa): 16 mg/L

Cc1c(/N=C/c2ccc(Cl)cc2)/c(=N\Nc2nc(-c3ccccc3)cs2)n(-c2ccccc2)n1C
inhibition (INH) [3]: 90%

Cc1c(/N=C/c2ccc(O)cc2)/c(=N\Nc2nc(-c3ccccc3)cs2)n(-c2ccccc2)n1C
inhibition (INH) [3]: 90%

Cc1c(/N=C/c2ccccc2)/c(=N\Nc2nc(-c3ccc(O)c(O)c3)cs2)n(-c2ccccc2)n1C
inhibition (INH) [3]: 90%

Cc1c(/N=C/c2ccco2)/c(=N\c2ccc([N+](=O)[O-])cc2)n(-c2ccccc2)n1C
MIC (Proteus vulgaris): 16 mg/L
MIC (Macrophomina phaseolina): 6 mg/L
MIC (Candida albicans): 6 mg/L
MIC (Aspergillus niger): 6 mg/L
MIC (Klebsiella pneumoniae): 16 mg/L
MIC (Escherichia coli): 16 mg/L
MIC (Aspergillus flavus): 6 mg/L
MIC (Staphylococcus aureus): 16 mg/L
MIC (Rhizopus stolonifer): 6 mg/L
MIC (Pseudomonas aeruginosa): 16 mg/L

COc1cc(-c2csc(N/N=c3\c(/N=C/c4ccccc4)c(C)n(C)n3-c3ccccc3)n2)ccc1O
inhibition (INH) [3]: 90%

Cc1c(/N=C/c2ccccc2)/c(=N\Nc2nc(-c3ccc([N+](=O)[O-])cc3)cs2)n(-c2ccccc2)n1C
inhibition (INH) [3]: 90%

Cc1c(/N=C/c2cccc(F)c2)/c(=N\Nc2nc(-c3ccccc3)cs2)n(-c2ccccc2)n1C
inhibition (INH) [3]: 90%

Cc1c(/N=C/c2cccc(Cl)c2)/c(=N\Nc2nc(-c3ccccc3)cs2)n(-c2ccccc2)n1C
inhibition (INH) [3]: 90%

Cc1c(/N=C/c2ccccc2Cl)/c(=N\Nc2nc(-c3ccccc3)cs2)n(-c2ccccc2)n1C
inhibition (INH) [3]: 90%

Cc1c(/N=C/c2ccccc2)/c(=N\Nc2nc(-c3ccc(O)cc3O)cs2)n(-c2ccccc2)n1C
inhibition (INH) [3]: 90%
MIC [4]: 0.648 10^-3micromol/ml

COc1ccccc1/N=N/c1ccc(O)c2ncccc12
IC50 [5]: 72 mg/L (≈ 258 µM)

Cc1c(/N=C/c2ccccc2)/c(=N\Nc2nc(-c3ccc(N(C)C)cc3)cs2)n(-c2ccccc2)n1C
inhibition (INH) [3]: 90%

Cc1c(/N=C/c2ccco2)/c(=N\c2ccc(O)cc2)n(-c2ccccc2)n1C
MIC (Proteus vulgaris): 16 mg/L
MIC (Macrophomina phaseolina): 6 mg/L
MIC (Candida albicans): 6 mg/L
MIC (Aspergillus niger): 6 mg/L
MIC (Klebsiella pneumoniae): 16 mg/L
MIC (Escherichia coli): 16 mg/L
MIC (Aspergillus flavus): 6 mg/L
MIC (Staphylococcus aureus): 16 mg/L
MIC (Rhizopus stolonifer): 6 mg/L
MIC (Pseudomonas aeruginosa): 16 mg/L

Cc1cc(C(C)(C)C)c(O)c(C(C)(C)C)c1 [BUTYLATED HYDROXYTOLUENE]
IC50 [6]: 32 mg/L (≈ 145 µM)
IC50 [7]: 32 mg/L (≈ 145 µM)
IC50 [5]: 31 mg/L (≈ 141 µM)

O=C(O)c1cc(O)c(O)c(O)c1 [GALLIC ACID]
LC50 [2]: 78 ppm
